Tested on: U87 cells
Test: Flow cytometry detection of PPIX in U87 cells exposed to 5-ALA
Format: cell-based
Conditions: serum-free, 5-ALA 250 μg/ml, excitation 406 nm, filter 610/20
Procedure: U87 cells representative of GBM tumors grown in T-75 flasks, in the absence of serum, were exposed to 5-aminolevulinic acid ([…]; 250 μg/ml) for 4 or 24 hours. Following exposure, cells were subjected to fluorescent excitation in a LSRII flow cytometer with an excitation at 406 nm violet wave length. Filter specifications were set at either 450/50, or set at 610/20 for the detection of protoporphyrin IX (PPIX).

In the case of NCC(=O)CCC(=O)O [5-ALA, 5-aminolevulinic acid], the “mean fluorescence index (MFI), PPIX” value (4 hours) is reported as “MFI increased” and the “mean fluorescence index (MFI), PPIX” value (24 hours) is reported as “MFI increased”.

From patent publication US11307204B2, “5-ALA for detection of brain tumors” (PIOMA, INC., priority 2012, dated 2022)
